# What was measured:
# [1] = Inhibition of ERK phosphorylation in human NCI-H358 cells incubated for 2 hrs by cellular assay; assay type: cell-based; conditions: NCI-H358, 2 h
# GTPase KRas = GTPase KRas (Homo sapiens, UniProt P01116, C118S/C51S/C80L/G12C); assay: Inhibition of biotinylated KRAS G12C/C51S/C80L/C118S mutant (unknown origin) pretreated for 60 mins followed by recombinant SOS addition by SOS-catalyzed nucleotide exchange-based TR-FRET analysis
# GTPase KRas, sequence (P01116 whole entry G12C/C51S/C80L/C118S): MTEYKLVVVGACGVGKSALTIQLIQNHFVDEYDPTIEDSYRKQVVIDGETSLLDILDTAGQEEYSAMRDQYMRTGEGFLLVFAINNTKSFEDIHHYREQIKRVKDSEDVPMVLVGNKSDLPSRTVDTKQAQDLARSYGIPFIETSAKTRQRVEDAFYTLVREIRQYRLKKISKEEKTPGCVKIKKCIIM
SMILES,IC50 [1],IC50 (GTPase KRas)
C=CC(=O)N1C[C@H](C)N(c2nc(=O)n3c4nc(c(F)cc24)-c2c(F)cccc2OCCCc2ccnc(C(C)C)c2-3)C[C@H]1C,8.8 nM,
C=CC(=O)N1C[C@H](C)N(c2nc(=O)n3c4nc(c(Cl)cc24)-c2c(F)cccc2OCCc2ccnc(C(C)C)c2-3)C[C@H]1C,5.1 nM,2.6 nM
C=CC(=O)N1C[C@H](C)N(c2nc(=O)n3c4nc(c(Cl)cc24)-c2c(F)cccc2OCC(F)(F)COc2ccnc(C(C)C)c2-3)C[C@H]1C,6.1 nM,
C=CC(=O)N1C[C@H](C)N(c2nc(=O)n3c4nc(c(Cl)cc24)-c2c(F)ccc(F)c2OCCOc2ccnc(C(C)C)c2-3)C[C@H]1C,4.4 nM,1.1 nM
[2H]C1([2H])Oc2ccc(F)c(F)c2-c2nc3c(cc2Cl)c(N2C[C@@H](C)N(C(=O)C=C)C[C@@H]2C)nc(=O)n3-c2c(ccnc2C(C)C)OC1([2H])[2H],6.1 nM,0.51 nM
C=CC(=O)N1CCN(c2nc(=O)n3c4nc(c(F)cc24)-c2c(F)cccc2OCCCc2ccnc(C(C)C)c2-3)[C@@H](C)C1,6.7 nM,4.3 nM
C=CC(=O)N1C[C@H](C)N(c2nc(=O)n3c4nc(c(F)cc24)-c2c(F)cccc2OCCCCc2ccnc(C(C)C)c2-3)C[C@H]1C,2.2 nM,
C=CC(=O)N1C[C@H](C)N(c2nc(=O)n3c4nc(c(F)cc24)-c2c(ccc(F)c2F)OCCC(C)c2ccnc(C(C)C)c2-3)C[C@H]1C (stereo partly drawn),6.8 nM,
C=CC(=O)N1CCN(c2nc(=O)n3c4nc(c(Cl)cc24)-c2c(F)cccc2OCC(F)(F)CCc2ccnc(C(C)C)c2-3)[C@@H](C)C1,3 nM,0.56 nM
C=CC(=O)N1CCN(c2nc(=O)n3c4nc(c(F)cc24)-c2c(F)cccc2OCCCCc2ccnc(C(C)C)c2-3)[C@@H](C)C1,1.5 nM,2.4 nM
C=CC(=O)N1C[C@H](C)N(c2nc(=O)n3c4nc(c(Cl)cc24)-c2c(ccc(F)c2F)OCCCc2ncnc(C(C)C)c2-3)C[C@H]1C,3.6 nM,
C=CC(=O)N1C[C@H](C)N(c2nc(=O)n3c4nc(c(F)cc24)-c2c(Cl)cccc2OCCCc2ccnc(C(C)C)c2-3)C[C@H]1C,3.6 nM,

# Source: ChEMBL document CHEMBL4823310, “Small Molecule Inhibitors of KRAS G12C Mutant” (ACS Med Chem Lett, 2021)
